Tested on: calpain activity in human neuroblastomas (SHSY5Y)
Assay: In situ calpain activity in human neuroblastomas SHSY5Y stimulated by maitotoxin
Format: cell-based
Conditions: read-out: Inhibition human calpain I, in situ (SHSY5Y) [IC50 (nM)]; n = 6; maitotoxin 1 nM; 4 h
Protocol: Human neuroblastomas SHSY5Y and rat glial cells C6 are seeded at a rate of 50,000 and 25,000 cells respectively per well on 96-well plates in DMEM 10% FBS. The next day, the cells which have adhered are washed 3 times in DMEM medium without serum and 40 mM Hepes. 100 microlitres of product B is placed in the wells. After incubation for 1 hour at 37° C. under an atmosphere of 5% CO2, 10 μl containing the fluorescent substrate of calpain (Suc-Leu-Tyr-AMC) and maitotoxin (Sigma, ref: M-9159), in order to obtain a final concentration in the well of 100 μM and of 1 nM respectively are added.
In order to determine the total activity of the cell enzyme, wells containing no product are added to the plate (100 μL DMSO 100th plus 10 μl of MTX and substrate). The background noise is determined by adding control wells with no MTX. Each concentration of the products (0.3 μM to 200 μM for the SHSY5Y's and 0.01 μM to 100 μM for the C6's) is tested in triplicate. The plates are shaken, the fluorescence is read at 380/460 nm using the Victor at T zero. Incubation takes place for four hours for the SHSY5Y and 1 hour 30 minutes for the C6 cells at 30° C. in darkness.

CC(C)C[C@@H](C=O)NC(=O)[C@H](CC(C)C)NC(=O)OCc1ccccc1 [EXAMPLE 1 B, benzyl (1S)-1-({[(1S)-1-formyl-3-methylbutyl]amino}carbonyl)-3-methylbutylcarbamate]
IC50: 13400 ± 2390 nM

Reference: patent US20070265208A1, “Association of calpain inhibitors and reactive oxygen species trapping agents” (priority 2000, published 2007)
